Test results: patent publication US5110797A, “Peptide compound and a pharmaceutically acceptable salt thereof” (Nippon Zoki Pharmaceutical Co., Ltd., priority 1985, dated 1992)

Experiments:
[1] = tested on: Wistar-strain rats (hippocampus EEG); experiment: Neurotropic effect: EEG activity after injection into the hippocampus of freely moving rats; assay type: in vivo, rat; details: 100 ng to 10 μg in 2 μl saline injected unilaterally into the hippocampus
Description: (I) A neurotropic effect of the peptide compounds of the present invention was examined by the method of Maria-S. Oitzl and J. P. Huston [Brain research, 308, 33-42 (1984)].
Wistar-strain rats were implanted with a set of electrodes for recording EEG under anesthesia with pentobarbital (50 mg/kg, i.p.). The electrodes were bilaterally implanted into the hippocampus (Bregma -2.7 mm, Lateral 2.5 mm, Depth 2.8 mm) by reference to THE RAT BRAIN IN STEREOTAXIC COODINATES (George Paxion & Charles Watson, Academic press). Chemitorode, a injection guide cannula uniting with electrode for recording, was implanted in the temporoparietal left hole. The test drugs were unilaterally injected into the hippocampus of freely moving rats to examine their effect on EEG activity.
The rats were kept for about a week for a cure, and then used for the experiments. After the EEG activity was recorded for dozens of minutes in a normal state, 100 ng to 10 μg of the test drug dissolved in 2 μl of saline was injected into the hippocampus through the injection guide cannula. Only saline was used as a control. Immediately after the administration it began to record the EEG activity.

ddY-strain male mice = experiment: Analgesic effect, modified Randall-Selitto's test (Tale pressure method); assay type: in vivo; details: 0.1 μmole/mouse, intracisternal injection, test at 5 min after injection, groups of 10 mice; control 1.17 ± 0.12
Description: Groups of 10 ddY-strain male mice weighing 24-30 g were used for measurement of analgesic effect of the peptide compounds of the present invention by modified Randall-Selitto's test (Tale pressure method). Analgesic test was performed at 5 min after intracisternal injection of the test drugs.

SMILES: NCCCC(=O)O [GABA, γ-Aminobutyric acid]
- time after administration at which characteristic EEG spikes appeared [1]: a few minutes
- time after administration until which the EEG spikes continued [1]: about 25 min
- Pain Index (ddY-strain male mice): 1.65 ± 0.13
